Values after ≈ are worked out from the molar mass of the structure shown.

Drawing on patent publication US4864023A, “Pyrido(3,2,1-IJ)-1,3,4-benzoxadiazine derivatives” (priority 1988, dated 1989), this text covers MIC for 4 molecules.

What all share (test): in vitro antibacterial activity, standard agar dilution method
What all share (assay type): cell-based
A general note: Agar dilution tests growth on a series of plates holding different concentrations.

The subject of experiment [1] is Enterobacter aerogenes NR 2945. The conditions noted are these: Klebsiella aerogenes, NR2945, aerobic, read-out: minimum inhibitory concentration (MIC).
Experiment [2] has as its system Staphylococcus epidermidis IFO 12993. The conditions noted are these: IFO12993, aerobic, read-out: minimum inhibitory concentration (MIC).
Experiment [3] has as its system Bordetella bronchiseptica ATCC 4617. The conditions noted are these: ATCC4617, aerobic, read-out: minimum inhibitory concentration (MIC).
Experiment [4] has as its system Enterococcus faecalis NR 2943. As to conditions: NR2943, aerobic, read-out: minimum inhibitory concentration (MIC).
The subject of experiment [5] is Enterobacter cloacae NR 2946. The conditions noted are these: NR2946, aerobic, read-out: minimum inhibitory concentration (MIC).
Experiment [6] has as its system Staphylococcus aureus NR 2855. The conditions noted are these: NR2855; Staphylococcus aureus NR 2855; aerobic; agar dilution; read-out: minimum inhibitory concentration (MIC).
Experiment [7] relates to Proteus rettgeri ATCC 14505. The conditions noted are these: Providencia rettgeri, ATCC14505, aerobic, read-out: minimum inhibitory concentration (MIC).
Experiment [8] has as its system Salmonella typhimurium IFO 12529. As to conditions: Salmonella enterica, aerobic, read-out: minimum inhibitory concentration (MIC).
For experiment [9], the system named is Pseudomonas aeruginosa A3. The conditions noted are these: aerobic, read-out: minimum inhibitory concentration (MIC).
The subject of experiment [10] is Proteus vulgaris OX19 ATCC 6898. As to conditions: ATCC6898, aerobic, read-out: minimum inhibitory concentration (MIC).
The subject of experiment [11] is Staphylococcus aureus FDA 209P JC-1. The conditions noted are these: FDA209P; Staphylococcus aureus FDA 209P JC-1; aerobic; agar dilution; read-out: minimum inhibitory concentration (MIC).
Experiment [12] deals with Alcaligenes faecalis IFO 13111. The conditions noted are these: IFO13111, aerobic, read-out: minimum inhibitory concentration (MIC).
Experiment [13] concerns Klebsiella pneumoniae FDA PCI 602. As to conditions: FDAPCI602, aerobic, read-out: minimum inhibitory concentration (MIC).
In experiment [14] the test system is Escherichia coli NIHJ JC-2. The conditions noted are these: NIHJJC2, aerobic, read-out: minimum inhibitory concentration (MIC).
Experiment [15] deals with Bacillus subtilis PCI 219. The conditions noted are these: PCI219, aerobic, read-out: minimum inhibitory concentration (MIC).
The subject of experiment [16] is Staphylococcus aureus Smith. As to conditions: Staphylococcus aureus Smith; aerobic; agar dilution; read-out: minimum inhibitory concentration (MIC).
Experiment [17] relates to Citrobacter freundii IFO 12681. As to conditions: IFO12681, aerobic, read-out: minimum inhibitory concentration (MIC).
The test system of experiment [18] is Escherichia coli NR 2630. As to conditions: NR2630; Escherichia coli NR 2630; aerobic; agar dilution; read-out: minimum inhibitory concentration (MIC).
In experiment [19] the test system is Staphylococcus epidermidis NR 2942. The conditions noted are these: NR2942, aerobic, read-out: minimum inhibitory concentration (MIC).
For experiment [20], the system named is Pseudomonas aeruginosa NR 2950. The conditions noted are these: NR2950, aerobic, read-out: minimum inhibitory concentration (MIC).
Experiment [21] concerns Serratia marcescens IFO 12648. As to conditions: IFO12648, aerobic, read-out: minimum inhibitory concentration (MIC).

For the molecule `CN1COc2c(N3CCC(CN)CC3)c(F)cc3c(=O)c(C(=O)O)cn1c23` [Example 12], the MIC was 0.2 µg/mL (≈ 0.531 µM) in experiment [1]; 0.39 µg/mL (≈ 1.04 µM) in [2]; 6.25 µg/mL (≈ 16.6 µM) in experiment [3]; 3.13 µg/mL (≈ 8.32 µM) in experiment [4]; 0.78 µg/mL (≈ 2.07 µM) in experiment [5]; 0.78 µg/mL (≈ 2.07 µM) in [6]. Further, the MIC is 12.5 µg/mL (≈ 33.2 µM) in [7]; 0.2 µg/mL (≈ 0.531 µM) in experiment [8]; 0.78 µg/mL (≈ 2.07 µM) in experiment [9]; 0.1 µg/mL (≈ 0.266 µM) in experiment [10]; 0.1 µg/mL (≈ 0.266 µM) in experiment [11]; 50 µg/mL (≈ 133 µM) in experiment [12]. Further, the MIC was 3.13 µg/mL (≈ 8.32 µM) in experiment [13]; 0.2 µg/mL (≈ 0.531 µM) in experiment [14]; 0.1 µg/mL (≈ 0.266 µM) in [15]; 0.1 µg/mL (≈ 0.266 µM) in experiment [16]; 0.78 µg/mL (≈ 2.07 µM) in [17]; 0.1 µg/mL (≈ 0.266 µM) in experiment [18]. The MIC in experiment [19] was 0.39 µg/mL (≈ 1.04 µM); in experiment [20], 12.5 µg/mL (≈ 33.2 µM); in [21], 3.13 µg/mL (≈ 8.32 µM).
Regarding `CN1COc2c(N3CCNC(=O)C3)c(F)cc3c(=O)c(C(=O)O)cn1c23` [Example 24, 9-fluoro-3-methyl-7-oxo-10-(3-oxo-1-piperazinyl)-2,3-dihydro-7H-pyrido[3,2,1-ij]-1,3,4-benzoxadiazine-6-carboxylic acid], the MIC in [1] came out at 0.78 µg/mL (≈ 2.15 µM); in [2] it was 3.13 µg/mL (≈ 8.64 µM); in [3], 50 µg/mL (≈ 138 µM); in [4], 25 µg/mL (≈ 69 µM); in experiment [5], 3.13 µg/mL (≈ 8.64 µM); in experiment [6] it was 6.25 µg/mL (≈ 17.3 µM). Moreover, the MIC in experiment [7] is 12.5 µg/mL (≈ 34.5 µM); in [8] it was 0.78 µg/mL (≈ 2.15 µM); in [9] it was 3.13 µg/mL (≈ 8.64 µM); in experiment [10], 0.39 µg/mL (≈ 1.08 µM); in [11], 1.56 µg/mL (≈ 4.31 µM); in experiment [12], 25 µg/mL (≈ 69 µM). Further, the MIC in experiment [13] came to 6.25 µg/mL (≈ 17.3 µM); in experiment [14], 1.56 µg/mL (≈ 4.31 µM); in experiment [15], 0.39 µg/mL (≈ 1.08 µM); in experiment [16], 1.56 µg/mL (≈ 4.31 µM); in experiment [17] it was 1.56 µg/mL (≈ 4.31 µM); in [18], 0.78 µg/mL (≈ 2.15 µM). Further, the MIC in [19] was found to be 3.13 µg/mL (≈ 8.64 µM); in experiment [20], 25 µg/mL (≈ 69 µM); in experiment [21], 6.25 µg/mL (≈ 17.3 µM).
Regarding `CN1COc2c(N3CCC(N)CC3)c(F)cc3c(=O)c(C(=O)O)cn1c23` [Example 33], the MIC was 0.05 µg/mL (≈ 0.138 µM) in experiment [1]; 0.78 µg/mL (≈ 2.15 µM) in [2]; 25 µg/mL (≈ 69 µM) in [3]; 3.13 µg/mL (≈ 8.64 µM) in experiment [4]; 0.2 µg/mL (≈ 0.552 µM) in [5]; 1.56 µg/mL (≈ 4.31 µM) in [6]. Also, the MIC amounted to 1.56 µg/mL (≈ 4.31 µM) in experiment [7]; 0.1 µg/mL (≈ 0.276 µM) in experiment [8]; 0.39 µg/mL (≈ 1.08 µM) in experiment [9]; 0.05 µg/mL (≈ 0.138 µM) in experiment [10]; 0.2 µg/mL (≈ 0.552 µM) in [11]; 50 µg/mL (≈ 138 µM) in [12]. Further, the MIC in experiment [13] amounted to 0.78 µg/mL (≈ 2.15 µM); in experiment [14], 0.2 µg/mL (≈ 0.552 µM); in experiment [15] it was 0.2 µg/mL (≈ 0.552 µM); in experiment [16], 0.2 µg/mL (≈ 0.552 µM); in experiment [17], 0.2 µg/mL (≈ 0.552 µM); in experiment [18], 0.1 µg/mL (≈ 0.276 µM). For the same molecule, the MIC was 0.78 µg/mL (≈ 2.15 µM) in experiment [19], 6.25 µg/mL (≈ 17.2 µM) in experiment [20] and 0.78 µg/mL (≈ 2.15 µM) in experiment [21].
Consider `CNC1CCN(c2c(F)cc3c(=O)c(C(=O)O)cn4c3c2OCN4C)CC1` [Example 34], for which the MIC in experiment [1] was 0.1 µg/mL (≈ 0.266 µM); in experiment [2], 0.78 µg/mL (≈ 2.07 µM); in experiment [3] it was 25 µg/mL (≈ 66.4 µM); in experiment [4], 6.25 µg/mL (≈ 16.6 µM); in experiment [5] it was 0.2 µg/mL (≈ 0.531 µM); in experiment [6], 1.56 µg/mL (≈ 4.14 µM). For the same molecule, the MIC in experiment [7] stood at 3.13 µg/mL (≈ 8.32 µM); in experiment [8], 0.1 µg/mL (≈ 0.266 µM); in [9] it was 0.78 µg/mL (≈ 2.07 µM); in experiment [10] it was 0.05 µg/mL (≈ 0.133 µM); in experiment [11], 0.2 µg/mL (≈ 0.531 µM); in [12], 50 µg/mL (≈ 133 µM). Besides, the MIC is 0.78 µg/mL (≈ 2.07 µM) in [13]; 0.2 µg/mL (≈ 0.531 µM) in experiment [14]; 0.05 µg/mL (≈ 0.133 µM) in experiment [15]; 0.2 µg/mL (≈ 0.531 µM) in experiment [16]; 0.2 µg/mL (≈ 0.531 µM) in experiment [17]; 0.1 µg/mL (≈ 0.266 µM) in experiment [18]. Besides, the MIC was found to be 0.78 µg/mL (≈ 2.07 µM) in experiment [19], 6.25 µg/mL (≈ 16.6 µM) in experiment [20] and 0.78 µg/mL (≈ 2.07 µM) in [21].
